One experiment has as its target CI-MPR (Homo sapiens, UniProt P11717). The following applies: previous studies; read-out: apparent KD; cited from earlier work.
The subject of experiment [1] is GAA-deficient multinucleated myotubes (KO). The experiment in a line: Cell-associated GAA activity in treated GAA KO myotubes. Format: cell-based, mouse. The following applies: 5 μM for 24 hours, compared to untreated cells. The procedure: (§1) Muscle cell culture, treatment, processing, and analysis. The biological effect of the Endo-A (69) and Endo-F3 (70) remodeled rhGAA was investigated in an in vitro model of Pompe disease.^[11, 12] The myoblasts are grown on Matrigel (Corning; 354234)-coated 6-well plates at 33° C. in an atmosphere of 5% CO2 in proliferation medium [20% fetal bovine serum, 10% horse serum, 1% chick embryo extract, recombinant IFN-γ (100 U/mL; Life Technologies), 1× penicillin/streptomycin/L-glutamine in high-glucose (4.5 g/L) DMEM]. When the cells reach 70-80% confluency (3-4 days), the medium is switched to differentiation medium [DMEM containing 2% horse serum, 0.5% chick embryo extract, recombinant human insulin (10 μg/mL, Life Technologies, 12585-014), 1× penicillin/streptomycin/L-glutamine], and the cells are moved to 37° C. in an atmosphere of 5% CO2. Myotubes begin to form within 3-4 days; they can survive for ˜ 8-10 days in culture until they start twitching and detach from the surface. […]
Measurement of cell-associated GAA activity. The GAA activity in the cells was measured by using 4-methylumbelliferyl-α-D-glucopyranoside (4-MU-α-glucopyranoside; Sigma-Aldrich #M9766) as the fluorogenic GAA substrate as described.^[13] […] Fluorescence was measured on a multi-label plate reader (TECAN, SPARK 10M) at 360 nm excitation/465 nm emission.

Experiment [2] has the same test system. Put plainly: Western blotting of treated GAA KO myotube lysates. Format: cell-based, mouse. The following applies: 5 μM for 24 hours. The protocol: as §1
Western blotting. […] Protein concentrations of the supernatants were measured using the Bio-Rad Protein Assay (Bio-Rad Laboratories, Inc.), and equal amounts of protein were run on SDS-PAGE gels (Invitrogen, Carlsbad, CA). […]
(Immunoblotting shows a protein as a band on a membrane.)

The test system is the same in experiment [3]. Put plainly: LAMP1 immunofluorescence (lysosomal swelling) in GAA KO myotubes. It is filed as cell-based, mouse. As to conditions: 5 μM for 24 hours, confocal images. The procedure: Muscle cell culture, treatment, processing, and analysis. The biological effect of the Endo-A (69) and Endo-F3 (70) remodeled rhGAA was investigated in an in vitro model of Pompe disease.^[11, 12] The myoblasts are grown on Matrigel (Corning; 354234)-coated 6-well plates at 33° C. in an atmosphere of 5% CO2 in proliferation medium [20% fetal bovine serum, 10% horse serum, 1% chick embryo extract, recombinant IFN-γ (100 U/mL; Life Technologies), 1× penicillin/streptomycin/L-glutamine in high-glucose (4.5 g/L) DMEM]. When the cells reach 70-80% confluency (3-4 days), the medium is switched to differentiation medium [DMEM containing 2% horse serum, 0.5% chick embryo extract, recombinant human insulin (10 μg/mL, Life Technologies, 12585-014), 1× penicillin/streptomycin/L-glutamine], and the cells are moved to 37° C. in an atmosphere of 5% CO2. Myotubes begin to form within 3-4 days; they can survive for ˜ 8-10 days in culture until they start twitching and detach from the surface.
The commercial rhGAA, Endo-A- or Endo-F3 remodeled rhGAA were added to the myotubes (on day 8 in differentiation medium) at a concentration of 5 μM for 24 hours; n=5 independent experiments for each condition. Wild type (WT) immortalized myotubes and untreated KO myotubes were used for comparison. The cells were homogenized on ice in deionized H2O, sonicated, and centrifuged at 18,000×g at 4° ° C. for 15 min. […]

“Also recorded” adds a separate entry of the source.

CI-MPR, sequence (P11717 41-2491, species assumed): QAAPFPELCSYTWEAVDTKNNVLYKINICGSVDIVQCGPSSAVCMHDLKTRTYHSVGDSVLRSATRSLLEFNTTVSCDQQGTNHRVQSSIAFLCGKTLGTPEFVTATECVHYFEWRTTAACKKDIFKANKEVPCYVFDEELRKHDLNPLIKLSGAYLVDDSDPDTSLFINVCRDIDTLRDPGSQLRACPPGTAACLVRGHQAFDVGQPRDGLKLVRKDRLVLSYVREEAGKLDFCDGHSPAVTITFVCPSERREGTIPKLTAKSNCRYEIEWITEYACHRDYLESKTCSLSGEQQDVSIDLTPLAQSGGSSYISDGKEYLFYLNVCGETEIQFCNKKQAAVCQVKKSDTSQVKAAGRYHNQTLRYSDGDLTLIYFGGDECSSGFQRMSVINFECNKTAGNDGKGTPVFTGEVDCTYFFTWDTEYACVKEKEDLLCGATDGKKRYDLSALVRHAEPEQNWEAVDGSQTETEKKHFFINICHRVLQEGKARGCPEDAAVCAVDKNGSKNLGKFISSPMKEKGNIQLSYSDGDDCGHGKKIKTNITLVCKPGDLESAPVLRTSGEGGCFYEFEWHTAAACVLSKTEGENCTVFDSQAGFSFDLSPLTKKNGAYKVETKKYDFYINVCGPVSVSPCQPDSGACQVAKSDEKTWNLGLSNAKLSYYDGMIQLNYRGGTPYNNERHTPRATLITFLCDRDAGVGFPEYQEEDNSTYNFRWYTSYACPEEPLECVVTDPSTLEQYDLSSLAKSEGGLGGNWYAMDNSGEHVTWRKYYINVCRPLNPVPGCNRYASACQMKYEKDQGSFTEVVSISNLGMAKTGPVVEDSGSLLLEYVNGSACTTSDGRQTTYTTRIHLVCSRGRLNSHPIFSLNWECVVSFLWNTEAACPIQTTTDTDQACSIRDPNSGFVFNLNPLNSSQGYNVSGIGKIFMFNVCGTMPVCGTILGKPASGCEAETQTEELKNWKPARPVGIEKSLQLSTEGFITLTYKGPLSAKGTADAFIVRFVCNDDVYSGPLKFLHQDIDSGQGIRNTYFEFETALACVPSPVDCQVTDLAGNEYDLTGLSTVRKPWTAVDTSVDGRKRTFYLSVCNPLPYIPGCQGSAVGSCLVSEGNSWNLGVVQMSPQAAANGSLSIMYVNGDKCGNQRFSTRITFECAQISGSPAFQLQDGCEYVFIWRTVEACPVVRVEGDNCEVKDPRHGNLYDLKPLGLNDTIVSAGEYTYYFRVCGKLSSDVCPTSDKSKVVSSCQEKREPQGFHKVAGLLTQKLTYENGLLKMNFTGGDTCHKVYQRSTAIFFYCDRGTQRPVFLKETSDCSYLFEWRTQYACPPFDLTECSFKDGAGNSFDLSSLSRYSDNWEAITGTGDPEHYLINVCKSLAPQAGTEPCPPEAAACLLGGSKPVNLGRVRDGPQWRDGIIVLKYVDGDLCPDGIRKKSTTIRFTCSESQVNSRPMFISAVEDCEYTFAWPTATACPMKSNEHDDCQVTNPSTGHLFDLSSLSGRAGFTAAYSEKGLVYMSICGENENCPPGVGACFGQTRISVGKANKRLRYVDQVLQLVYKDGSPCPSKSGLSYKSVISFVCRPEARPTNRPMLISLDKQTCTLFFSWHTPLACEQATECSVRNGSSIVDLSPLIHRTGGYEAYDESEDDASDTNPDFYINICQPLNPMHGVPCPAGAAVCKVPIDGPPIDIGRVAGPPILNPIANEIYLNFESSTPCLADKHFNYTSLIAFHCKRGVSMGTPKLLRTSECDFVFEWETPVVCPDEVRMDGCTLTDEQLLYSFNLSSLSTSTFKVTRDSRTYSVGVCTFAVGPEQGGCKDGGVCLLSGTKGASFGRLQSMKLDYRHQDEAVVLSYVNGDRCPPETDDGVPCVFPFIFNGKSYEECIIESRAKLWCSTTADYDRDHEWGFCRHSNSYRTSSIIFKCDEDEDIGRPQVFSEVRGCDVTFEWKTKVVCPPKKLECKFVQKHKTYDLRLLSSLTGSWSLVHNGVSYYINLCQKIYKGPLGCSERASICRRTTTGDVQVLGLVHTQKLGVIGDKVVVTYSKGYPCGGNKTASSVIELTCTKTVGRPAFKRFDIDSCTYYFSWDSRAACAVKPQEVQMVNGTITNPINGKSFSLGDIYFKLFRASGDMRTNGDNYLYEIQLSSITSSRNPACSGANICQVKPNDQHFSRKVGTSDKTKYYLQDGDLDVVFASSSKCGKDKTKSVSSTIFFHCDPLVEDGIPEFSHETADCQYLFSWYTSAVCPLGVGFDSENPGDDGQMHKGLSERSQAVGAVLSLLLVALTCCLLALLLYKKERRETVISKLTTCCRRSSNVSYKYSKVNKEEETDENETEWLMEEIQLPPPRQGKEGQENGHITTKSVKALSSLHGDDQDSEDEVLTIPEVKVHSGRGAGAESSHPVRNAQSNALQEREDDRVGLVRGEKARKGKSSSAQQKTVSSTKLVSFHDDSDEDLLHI

For the substance “ATB200: novel rhGAA carrying a higher M6P content that binds the CI-MPR with high affinity (previous studies)”, in the experiment with CI-MPR, the Kd was 2 to 4 nM.

For “Lumizyme: recombinant human acid α-glucosidase (alglucosidase alfa, Genzyme), therapeutic lysosomal enzyme for Pompe disease”, the “GAA activity in cell lysates (cellular uptake)” value in experiment [1] is given as “only a slight increase (statistically insignificant)”. Further, the “levels of endosomal (Rab5) and lysosomal (LAMP1) markers” value in experiment [2] (Western blot) is given as “remained the same as in the untreated GAA-deficient cells”. For the same substance, the “processed, mature lysosomal form of rhGAA (76 kDa) in cells” value in experiment [2] (Western blot with anti-human GAA antibodies) is given as “barely detectable”. In addition, the “enlarged LAMP1-positive lysosomes” value in experiment [3] is listed as “Enlarged lysosomes were seen; also recorded: can be detected; also recorded: contain enlarged LAMP1-positive lysosomes”.

The record behind these values is US20240218342A1, “SITE-SPECIFIC GLYCAN REMODELING OF LYSOSOMAL ENZYMES AND APPLICATIONS THEREOF” (priority 2021, published 2024).
